The supplement of paper PMC10307832

Tests used:
Assay in all cases: relative viability (nuclei count vs DMSO), 5 days (fraction); higher = more cells survive
[1] = compound: C1=CC2=C(C=C(C(=C2N=C1)O)N=NC3=CC4=C(C=C3)C=C(C=C4)S(=O)(=O)O)S(=O)(=O)O + O=C(CCCCCCC(=O)Nc1ccccc1)NO [Vorinostat] (partner 1 µM)
In short: (§1)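 Lung cancer cell lines were seeded in 1536-well plates and dosed by pin tool the next day, with either a single drug or a fixed anchor-drug dose combined with five library-drug doses (not always all listed) spaced in √10 steps. Five days later, one step fixed the cells and stained their nuclei (final 0.05% Triton X-100, 1% formaldehyde, 1 ug/ml Hoechst), and nuclei were counted on 4× images. Relative viability is the nuclei count in treated wells divided by the count in vehicle wells, and each value is the median of duplicate plates.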

[2] = compound: O=C(NC1CCNCC1)c1n[nH]cc1NC(=O)c1c(Cl)cccc1Cl [AT-7519] + Cc1nc(Nc2ncc(C(=O)Nc3c(C)cccc3Cl)s2)cc(N2CCN(CCO)CC2)n1 [Dasatinib] (partner 0.075 µM)
In short: as §1

[3] = compound: O=C(NC1CCNCC1)c1n[nH]cc1NC(=O)c1c(Cl)cccc1Cl [AT-7519] + Nc1ncn([C@H]2C[C@H](O)[C@@H](CO)O2)c(=O)n1 [Decitabine] (partner 2 µM)
In short: as §1

[4] = compound: O=C(NC1CCNCC1)c1n[nH]cc1NC(=O)c1c(Cl)cccc1Cl [AT-7519] + O=C(CCCCCCC(=O)Nc1ccccc1)NO [Vorinostat] (partner 1 µM)
In short: as §1

Cell Line | relative viability ([1]; first compound 0.08 µM) | relative viability ([1]; first compound 0.253 µM) | relative viability ([1]; first compound 0.8 µM) | relative viability ([1]; first compound 2.53 µM) | relative viability ([1]; first compound 8 µM) | relative viability ([2]; first compound 0.01 µM) | relative viability ([2]; first compound 0.03162 µM) | relative viability ([2]; first compound 0.3162 µM) | relative viability ([2]; first compound 1 µM) | relative viability ([3]; first compound 0.01 µM) | relative viability ([3]; first compound 0.03162 µM) | relative viability ([3]; first compound 0.3162 µM) | relative viability ([3]; first compound 1 µM) | relative viability ([4]; first compound 0.01 µM) | relative viability ([4]; first compound 0.03162 µM) | relative viability ([4]; first compound 0.3162 µM) | relative viability ([4]; first compound 1 µM)
EMC-BAC-2 | 0.377 | 0.458 | 0.467 | 0.441 | 0.45 | 0.358 | 0.327 | 0.296 | 0.227 | 0.93 | 0.924 | 0.935 | 0.692 | 0.424 | 0.422 | 0.531 | 0.878
LK-2 | 0.308 | 0.333 | 0.292 | 0.263 | 0.178 | 0.288 | 0.248 |  | 0.221 | 0.23 | 0.276 | 0.298 | 0.266 | 0.247 | 0.258 | 0.332 | 0.241
NCI-H2126 | 0.899 | 0.75 | 0.737 | 0.809 | 0.851 | 0.658 | 0.626 | 0.497 | 0.357 | 0.524 | 0.568 | 0.552 | 0.495 | 0.79 | 0.731 | 0.646 | 0.668
NCI-H3122 | 1.16 | 1.04 | 0.96 | 0.814 | 0.948 | 0.917 | 0.805 | 0.809 | 0.354 | 0.508 | 0.484 | 0.511 | 0.193 | 1.06 | 1.07 | 1.04 | 0.757
NCI-H1975 | 0.707 | 0.693 | 0.63 | 0.753 | 0.732 | 0.341 | 0.341 | 0.384 | 0.127 | 0.398 | 0.371 | 0.252 | 0.271 | 0.805 | 0.679 | 0.624 | 0.27
NCI-H1944 | 0.52 | 0.538 | 0.525 | 0.583 | 0.477 | 0.205 | 0.198 | 0.215 | 0.124 | 0.443 | 0.415 | 0.434 | 0.344 | 0.547 | 0.528 | 0.534 | 0.436
LU99A | 0.534 | 0.445 | 0.63 | 0.494 | 0.53 | 0.609 | 0.574 | 0.468 | 0.536 | 0.953 | 0.843 | 0.791 | 0.484 | 0.481 | 0.462 | 0.469 | 0.448
SW 1573 | 0.92 | 0.915 | 0.531 | 0.828 | 0.519 | 0.762 | 0.466 | 0.255 | 0.0794 | 0.471 | 0.424 | 0.34 | 0.137 | 0.812 | 0.696 | 0.615 | 0.231
NCI-H2347 | 0.691 | 0.621 | 0.59 | 0.408 | 0.729 | 0.375 | 0.32 | 0.356 | 0.0926 | 0.561 | 0.59 | 0.571 | 0.526 | 0.463 | 0.527 | 0.637 | 0.379
NCI-H2009 | 0.691 | 0.742 | 0.759 | 0.748 | 0.53 | 0.282 | 0.279 | 0.234 | 0.157 | 0.395 | 0.406 | 0.446 | 0.309 | 0.782 | 0.725 | 0.81 | 0.746
HCC-15 | 0.818 | 0.857 | 0.779 | 0.826 | 0.827 | 0.669 | 0.584 | 0.433 | 0.191 | 0.59 | 0.567 | 0.498 | 0.441 | 0.857 | 0.796 | 0.799 | 0.565
COR-L23 | 0.484 | 0.396 | 0.418 | 0.449 | 0.599 | 0.434 | 0.513 | 0.369 | 0.137 | 0.455 | 0.465 | 0.388 | 0.197 | 0.508 | 0.507 | 0.344 | 0.152
HCC-78 | 0.437 | 0.471 | 0.458 | 0.437 | 0.434 | 0.368 | 0.397 | 0.335 | 0.364 | 0.688 | 0.704 | 0.696 | 0.626 | 0.411 | 0.409 | 0.438 | 0.417
NCI-H727 | 1.13 | 1.26 | 1.09 | 1.12 | 1.09 | 0.392 | 0.401 | 0.257 | 0.135 | 0.927 | 0.746 | 0.874 | 0.509 | 1.17 | 1.08 | 1.11 | 0.794
NCI-H2087 | 0.69 | 0.804 | 0.795 | 0.702 | 0.676 | 1.14 | 0.938 | 0.732 | 0.108 | 0.24 | 0.257 | 0.262 | 0.0751 | 1.01 | 0.632 | 0.607 | 0.206
BEN | 0.562 | 0.695 | 0.526 | 0.599 | 0.589 | 0.354 | 0.321 | 0.399 | 0.331 | 0.754 | 0.663 | 0.771 | 0.744 | 0.6 | 0.537 | 0.593 | 0.579
LCLC-103H | 0.797 | 0.784 | 0.827 | 0.785 | 0.859 | 0.533 | 0.388 | 0.451 | 0.54 | 0.785 | 0.669 | 0.707 | 0.653 | 0.848 | 0.774 | 0.768 | 0.814
